# Data as given in US6541467B1, “Thrombin inhibitors having a lactam at P3” (Corvas International, Inc., priority 2000, dated 2003).
# Columns and labels:
# Type in all cases: biochemical
# human plasmin = target: T1, human plasmin (Homo sapiens, UniProt P00747); assay: Plasmin chromogenic enzyme assay
# T1 construct: Purified human plasmin; purchased Enzyme Research Laboratories, Inc
# Experimental: (§1) The ability of compounds of the present invention to act as a selective inhibitor of thrombin activity was assessed by determining the concentration of test-compound which inhibited the activity of this enzyme by 50%, (IC50), and comparing this value to that determined for all or some of the following related serine proteases: recombinant tissue plasminogen activator (rt-PA), plasmin, activated protein C, chymotrypsin, factor Xa and trypsin.
# (§2) The buffer used for all assays was HBSA (10 mM HEPES, pH 7.5, 150 mM sodium chloride, 0.1% bovine serum albumin).
# (§3) The assay for IC50 determinations was conducted by combining in appropriate wells of a Corning microtiter plate, 50 microliters of HBSA, 50 microliters of the test compound at a specified concentration (covering a broad concentration range) diluted in HBSA (or HBSA alone for V0 (uninhibited velocity) measurement), and 50 microliters of the enzyme diluted in HBSA. Following a 30 minute incubation at ambient temperature, 50 microliters of the substrate at the concentrations specified below were added to the wells, yielding a final total volume of 200 microliters. The initial velocity of chromogenic substrate hydrolysis was measured by the change in absorbance at 405 nm using a Thermo Max® Kinetic Microplate Reader over a 5 minute period in which less than 5% of the added substrate was utilized. The concentration of added inhibitor which caused a 50% decrease in the initial rate of hydrolysis was defined as the IC50 value.
# Plasmin catalytic activity was determined using the chromogenic substrate, S-2366 [L-pyroglutamyl-L-prolyl-L-arginine-p-nitroaniline hydrochloride], which was obtained from DiaPharma group. The substrate was made up in deionized water followed by dilution in HBSA prior to the assay in which the final concentration was 300 micromolar (about 2:.5-times Km). Purified human plasmin was obtained from Enzyme Research Laboratories, Inc. The enzyme was diluted into HBSA prior to assay in which the final concentration was 1.0 nM.
# human α-thrombin = target: T2, human α-thrombin (Homo sapiens, UniProt P00734); assay: Thrombin (fIIa) chromogenic enzyme assay; settings: for IC50: 0 min
# T2 construct: Purified human α-thrombin; purchased Enzyme Research Laboratories, Inc
# Experimental: For screening compounds using these assays, the compounds of the present invention are dissolved in buffer to give solutions containing concentrations such that assay concentrations range from 0 to 100 micromolar. In the assays for thrombin, plasmin, t-PA, aPC, chymotrypsin, and trypsin, a chromogenic synthetic substrate is added to a solution containing test compound and the enzyme of interest and the residual catalytic activity of that enzyme is determined spectrophometrically. The IC50 of a compound of the present invention is determined from the rate of substrate turnover caused by the specific enzyme being measured. IC50 is the concentration of test compound which gives 50% inhibition of the rate of substrate turnover. Likewise, the Ki of a compound of the present invention is determined from the rate of substrate turnover caused by the specific enzyme being measured at various […] concentrations. Example A provides exemplars of in vitro assays used to select the compounds of the present invention.
# as §1, §2
# as §3, with “Following a 30 minute incubation at ambient temperature, 50 microliters of the substrate at the concentrations specified below were added to the wells, yielding a final total volume of 200 microliters.” left out
# Enzyme activity was determined using the chromogenic substrate, Pefachrome t-PA (CH3SO2-D-hexahydrotyrosine-glycyl-L-Arginine-p-nitroaniline, obtained from Pentapharm Ltd.). The substrate was reconstituted in deionized water prior to use. Purified human α-thrombin was obtained from Enzyme Research Laboratories, Inc. The buffer used for all assays was HBSA (10 mM HEPES, pH 7.5, 150 mM sodium chloride, 0.1% bovine serum albumin).
# The initial velocity of Pefachrome t-PA hydrolysis was measured by the change in absorbance at 405 nm using a Thermo Max® Kinetic Microplate Reader over a 5 minute period in which less than 5% of the added substrate was utilized. The concentration of:added inhibitor which caused a 50% decrease in the initial rate of hydrolysis was defined as the IC50 value.
# Factor Xa = target: T3, Factor Xa (Homo sapiens, UniProt P00742); assay: Factor Xa chromogenic enzyme assay; settings: read-out: fXa IC50
# T3 construct: purchased Enzyme Research Laboratories, Inc. (South Bend, Ind.)
# T3 sequence (P00742 235-488 limits assumed): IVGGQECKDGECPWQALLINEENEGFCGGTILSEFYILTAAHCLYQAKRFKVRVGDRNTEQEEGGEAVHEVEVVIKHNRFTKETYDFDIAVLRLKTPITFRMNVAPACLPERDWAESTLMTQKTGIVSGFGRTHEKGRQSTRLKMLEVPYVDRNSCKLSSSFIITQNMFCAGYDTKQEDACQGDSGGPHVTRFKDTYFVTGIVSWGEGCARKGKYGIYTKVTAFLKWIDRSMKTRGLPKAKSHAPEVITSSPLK
# T3 sequence (P00742 41-179 partner limits assumed): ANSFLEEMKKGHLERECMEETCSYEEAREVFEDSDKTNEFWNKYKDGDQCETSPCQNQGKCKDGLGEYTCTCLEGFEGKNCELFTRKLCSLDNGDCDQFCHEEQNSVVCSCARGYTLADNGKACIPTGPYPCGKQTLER
# Experimental: as §1, §2, §3
# Factor Xa catalytic activity was determined using the chromogenic substrate S-2765 (N-benzyloxycarbonyl-D-arginine-L-glycine-L-arginine-p-nitroaniline), obtained from DiaPharma Group (Franklin, Ohio). All substrates were reconstituted in deionized water prior to use. […] Purified human Factor X was obtained from Enzyme Research Laboratories, Inc. (South Bend, Ind.) and Factor Xa (FXa) was activated and prepared from it as described [Bock, P. E., Craig, P. A., Olson, S. T., and Singh, P. Arch. Biochem. Biophys. 273:375-388 (1989)]. The enzyme was diluted into HBSA prior to assay in which the final concentration was 0.25 nM.
# [1] = target: T4, bovine pancreatic trypsin (Bos taurus, UniProt P00760); assay: Trypsin chromogenic enzyme assay
# T4 sequence (P00760 24-246): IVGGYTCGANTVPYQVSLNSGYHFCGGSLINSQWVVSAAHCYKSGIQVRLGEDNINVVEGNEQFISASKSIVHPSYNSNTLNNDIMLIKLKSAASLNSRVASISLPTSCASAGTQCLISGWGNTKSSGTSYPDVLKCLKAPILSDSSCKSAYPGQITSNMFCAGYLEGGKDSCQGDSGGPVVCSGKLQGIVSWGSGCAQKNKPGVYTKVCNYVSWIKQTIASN
# Experimental: as §1, §2, §3
# Trypsin catalytic activity was determined using the chromogenic substrate, S-2222 (benzoyl-L-isoleucine-L-glutamic acid-[gamma-methyl ester]-L-arginine-p-nitroanilide), which was obtained from DiaPharma Group. […] Purified (3×-crystallized; TRL3) bovine pancreatic trypsin was obtained from Worthington Biochemical Corp. The enzyme was reconstituted in deionized water and diluted into HBSA prior to assay in which the final concentration was 0.5 nM.
# T1 sequence (P00747 581-810 limits assumed): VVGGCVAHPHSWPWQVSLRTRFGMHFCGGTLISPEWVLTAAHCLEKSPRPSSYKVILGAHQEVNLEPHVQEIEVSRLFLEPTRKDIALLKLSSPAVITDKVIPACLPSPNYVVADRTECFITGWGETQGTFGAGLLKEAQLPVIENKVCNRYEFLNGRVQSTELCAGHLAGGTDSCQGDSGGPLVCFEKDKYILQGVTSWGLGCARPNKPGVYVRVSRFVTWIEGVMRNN
# T1 sequence (P00747 97-580 partner limits assumed): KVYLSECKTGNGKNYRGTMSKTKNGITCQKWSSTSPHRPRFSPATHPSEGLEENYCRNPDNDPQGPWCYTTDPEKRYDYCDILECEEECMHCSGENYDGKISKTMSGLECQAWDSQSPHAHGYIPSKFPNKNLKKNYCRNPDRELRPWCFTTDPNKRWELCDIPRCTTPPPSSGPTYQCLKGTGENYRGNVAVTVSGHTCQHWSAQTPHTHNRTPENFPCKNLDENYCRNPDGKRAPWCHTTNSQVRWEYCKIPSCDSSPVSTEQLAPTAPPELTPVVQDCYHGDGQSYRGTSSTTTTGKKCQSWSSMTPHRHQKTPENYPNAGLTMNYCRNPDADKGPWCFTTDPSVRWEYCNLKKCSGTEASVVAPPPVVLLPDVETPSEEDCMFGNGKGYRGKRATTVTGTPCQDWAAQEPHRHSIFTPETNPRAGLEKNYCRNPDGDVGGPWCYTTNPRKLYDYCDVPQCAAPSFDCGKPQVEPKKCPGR
IC50 (human plasmin) [nM],Ki (human α-thrombin) [nM],IC50 (human α-thrombin) [nM],IC50 (Factor Xa) [nM],IC50 [1] [nM],SMILES
≥ 2500,≤ 100,≤ 100,300 to 2500,100 to 300,"N=C(N)c1ccc(CNC(=O)CN2CCCC[C@H](NS(=O)(=O)c3ccc4c(c3)CCO4)C2=O)s1 [Example 24, 3-(S)-(2,3-Dihydrobenzo[b]furanyl-5-sulfonyl)amino-1-(2-amindino-5-methylenecarboxamidomethylthiophenyl)-4,5,6,7-tetrahydroazepin-2-one]"
≥ 2500,≤ 100,100 to 300,≥ 2500,≥ 2500,"Cc1nc(N)ccc1CNC(=O)CN1CCCC[C@H](NS(=O)(=O)c2ccc3c(c2)CCO3)C1=O [Example 35, 3-(S)-(2,3-Dihydrobenzo[b]furanyl-5-sulfonyl)amino-1-(2-amino-6-methyl-5-methylenecarboxamidomethylpyridinyl)-4,5,6,7-tetrahydroazepin-2-one]"
≥ 2500,≤ 100,100 to 300,≥ 2500,≥ 2500,"N=C(N)N1CCC(CNC(=O)CN2CCCC[C@H](NS(=O)(=O)c3ccc4c(c3)CCO4)C2=O)CC1 [Example 36, 3-(S)-(2,3-Dihydrobenzo[b]furanyl-5-sulfonyl)amino-1-(1-amidino-4-methylenecarboxamidomethylperidinyl)-4,5,6,7-tetrahydroazepin-2-one]"
≥ 2500,100 to 300,300 to 2500,≥ 2500,300 to 2500,N/C(=N\O)c1ccc(CNC(=O)CN2CCCC[C@H](NS(=O)(=O)c3ccc4c(c3)CCO4)C2=O)cc1 [Example 37]
≥ 2500,≤ 100,≤ 100,≥ 2500,≤ 100,N=C(N)c1ccc(CNC(=O)CN2CCCC[C@H](NS(=O)(=O)c3ccc4c(c3)CCO4)C2=O)cc1 [Example 38]
≥ 2500,≤ 100,100 to 300,≥ 2500,100 to 300,N=C(N)c1ccc(CNC(=O)CN2CCCC[C@H](NS(=O)(=O)c3ccc4c(c3)CCO4)C2=O)c(F)c1 [Example 39]
≥ 2500,≥ 2500,≥ 2500,≥ 2500,≥ 2500,N=C(N)N1CCC(CNC(=O)CN2CCCC[C@H](NS(=O)(=O)c3ccc4ccccc4c3)C2=O)CC1 [Example 40]
≥ 2500,≤ 100,300 to 2500,≥ 2500,≥ 2500,"N=C(N)N1CCC(CNC(=O)CN2CCCC[C@H](NS(=O)(=O)c3ccccc3)C2=O)CC1 [Example 41, 3-(Benzenesulfonyl)amino-1-(1-amidino-4-methylenecarboxamido-methylpiperidinyl)-4,5,6,7-tetrahydroazepin-2-one]"
≥ 2500,100 to 300,300 to 2500,≥ 2500,≥ 2500,COc1ccc(OC)c(S(=O)(=O)N[C@H]2CCCCN(CC(=O)NCC3CCN(C(=N)N)CC3)C2=O)c1 [Example 42]
≥ 2500,≤ 100,300 to 2500,≥ 2500,≥ 2500,COc1ccc(S(=O)(=O)N[C@H]2CCCCN(CC(=O)NCC3CCN(C(=N)N)CC3)C2=O)cc1OC [Example 43]
≥ 2500,100 to 300,300 to 2500,≥ 2500,100 to 300,N=C(N)c1ccc(CNC(=O)CN2CCCC[C@H](NS(=O)(=O)c3ccc4ccccc4c3)C2=O)cc1 [Example 44]
≥ 2500,≤ 100,100 to 300,≥ 2500,100 to 300,N=C(N)c1ccc(CNC(=O)CN2CCCC[C@H](NS(=O)(=O)c3ccccc3)C2=O)cc1 [Example 45]
≥ 2500,≤ 100,≤ 100,≥ 2500,≥ 2500,COc1ccc(OC)c(S(=O)(=O)N[C@H]2CCCCN(CC(=O)NCc3ccc(C(=N)N)cc3)C2=O)c1 [Example 46]
≥ 2500,≤ 100,≤ 100,≥ 2500,100 to 300,COc1ccc(S(=O)(=O)N[C@H]2CCCCN(CC(=O)NCc3ccc(C(=N)N)cc3)C2=O)cc1OC [Example 47]
≥ 2500,≤ 100,300 to 2500,≥ 2500,≥ 2500,N[C@H]1CC[C@H](CNC(=O)CN2CCCC[C@H](NS(=O)(=O)c3ccc4c(c3)CCO4)C2=O)CC1 [Example 48]
≥ 2500,100 to 300,300 to 2500,≥ 2500,≥ 2500,O=C(CN1CCCC[C@H](NS(=O)(=O)c2ccc3c(c2)CCO3)C1=O)NCc1ccc2[nH]ncc2c1 [Example 49]
≥ 2500,300 to 2500,≥ 2500,≥ 2500,≥ 2500,"N/C(=N\O)c1ccc(CNC(=O)CN2C(=O)[C@@H](NS(=O)(=O)c3ccc4c(c3)CCO4)CCc3ccccc32)cc1 [Example 54, 3-(S)-(2,3-Dihydrobenzo[b]furanyl-5-sulfonyl)amino-1-(4-hydroxyamidinylbenzylmethylenecarboxamido)-4,5-dihydrobenzo[f]azepin-2-one]"
≥ 2500,≤ 100,≤ 100,≥ 2500,300 to 2500,"N=C(N)c1ccc(CNC(=O)CN2C(=O)[C@@H](NS(=O)(=O)c3ccc4c(c3)CCO4)CCc3ccccc32)cc1 [Example 55, 3-(S)-(2,3-Dihydrobenzo[b]furanyl-5-sulfonyl)amino-1-(4-amidinylphenylmethylenecarboxamido)-4,5-dihydrobenzo[f]azepin-2-one]"
≥ 2500,≤ 100,300 to 2500,≥ 2500,≥ 2500,"N=C(N)N1CCC(CNC(=O)CN2C(=O)[C@@H](NS(=O)(=O)c3ccc4c(c3)CCO4)CCc3ccccc32)CC1 [Example 56, 3-(S)-(2,3-Dihydrobenzo[b]furanyl-5-sulfonyl)amino-1-(1-amidino-4-methylenecarboxamidomethylpiperidyl)-4,5-dihydrobenzo[f]azepin-2-one]"
